These results are taken from the CheMixHub viscosity set.

By viscosity is commonly meant the internal friction of a fluid under shear. Low values mean easy flow, high ones sluggish flow.

Several values for one entry are separate records, joined by “and”; a condition that tells them apart may be missing. Identical values can stand only once. ± gives the uncertainty stated by the source.

For `CC(C)CCO`, the viscosity (293.15 K, 101.33 kPa) is on record as 4.579 ± 0.046 mPa·s; the viscosity (298.1 K, 101 kPa) is 3.841 ± 0.079 mPa·s and 3.798 ± 0.0052 mPa·s; the viscosity (298.15 K, 100 kPa) was determined as 3.74 ± 0.062 mPa·s; the viscosity (298.15 K, 101.3 kPa) was 3.48 ± 0.095 mPa·s; the viscosity (298.15 K, 101.33 kPa) came out at 3.581 ± 0.043 mPa·s; the viscosity (303.15 K, 101.3 kPa) was 2.95 ± 0.081 mPa·s and 2.958 ± 0.034 mPa·s and 2.96 ± 0.036 mPa·s. Further, the viscosity is, setting by setting: (308.15 K, 100 kPa) 2.654 ± 0.059 mPa·s; (308.15 K, 101 kPa) 2.805 ± 0.044 mPa·s and 2.61 ± 0.06 mPa·s and 2.881 ± 0.033 mPa·s; (308.15 K, 101.3 kPa) 2.53 ± 0.069 mPa·s; (308.15 K, 101.33 kPa) 2.59 ± 0.032 mPa·s; (313.15 K, 101.3 kPa) 2.21 ± 0.061 mPa·s; (313.15 K, 101.33 kPa) 2.537 ± 0.025 mPa·s and 2.391 ± 0.028 mPa·s. In addition, the viscosity is 2.05 ± 0.04 mPa·s and 2.23 ± 0.026 mPa·s (318.15 K, 101 kPa); 1.867 ± 0.036 mPa·s and 1.974 ± 0.023 mPa·s (323.15 K, 101 kPa); 1.827 ± 0.022 mPa·s (323.15 K, 101.33 kPa).
In turn, `CC(CC(C)(C)C)CP(=O)(O)CC(C)CC(C)(C)C` (stereo unspecified) returned a viscosity (298.15 K, 101 kPa) of 120 ± 2.2 mPa·s.
For `CCCCCCCCCCOC(C)=O`, the viscosity (303.15 K, 101.3 kPa) was 2.145 ± 0.016 mPa·s.
For `CNCCO`, the viscosity was 13.23 ± 0.35 mPa·s (293.15 K, 101.3 kPa); 10.63 ± 0.54 mPa·s (298.15 K, 101.3 kPa); 12 ± 0.23 mPa·s (298.15 K, 101.33 kPa); 8.596 ± 0.1 mPa·s (303.15 K, 101 kPa); 8.612 ± 0.44 mPa·s and 8.535 ± 0.23 mPa·s (303.15 K, 101.3 kPa); 9.528 ± 0.19 mPa·s (303.15 K, 101.33 kPa). Further, the viscosity was 7.075 ± 0.084 mPa·s (308.15 K, 101 kPa); 7.07 ± 0.36 mPa·s and 7.014 ± 0.18 mPa·s (308.15 K, 101.3 kPa); 5.892 ± 0.07 mPa·s (313.15 K, 101 kPa); 5.883 ± 0.3 mPa·s and 5.841 ± 0.15 mPa·s (313.15 K, 101.3 kPa); 6.396 ± 0.13 mPa·s (313.15 K, 101.33 kPa); 4.949 ± 0.059 mPa·s (318.15 K, 101 kPa). In addition, the viscosity is, setting by setting: (318.15 K, 101.3 kPa) 4.953 ± 0.25 mPa·s and 4.919 ± 0.13 mPa·s; (323.15 K, 101 kPa) 4.204 ± 0.05 mPa·s; (323.15 K, 101.3 kPa) 4.214 ± 0.21 mPa·s and 4.186 ± 0.11 mPa·s.
`C[C@@H]1CCCC[C@H]1O`: the viscosity is on record as 37.35 ± 0.49 mPa·s (298.15 K, 101 kPa) and 25.29 ± 0.38 mPa·s (303.15 K, 101 kPa).
Turning to `Cc1cccc(Cl)c1`, the viscosity by setting is: (303.15 K, 100 kPa) 0.743 ± 0.05 mPa·s; (303.15 K, 101 kPa) 0.751 ± 0.013 mPa·s and 0.743 ± 0.02 mPa·s; (308.15 K, 100 kPa) 0.701 ± 0.05 mPa·s; (308.15 K, 101 kPa) 0.701 ± 0.02 mPa·s; (313.15 K, 100 kPa) 0.663 ± 0.05 mPa·s; (313.15 K, 101 kPa) 0.652 ± 0.011 mPa·s and 0.663 ± 0.019 mPa·s. In addition, the viscosity by setting is: (318.15 K, 100 kPa) 0.624 ± 0.05 mPa·s; (318.15 K, 101 kPa) 0.624 ± 0.018 mPa·s.
For the compound `FC(F)(F)C(F)(F)C(F)(F)C(F)(F)C(F)(F)C(F)(F)F`, the viscosity reads like this: (298 K, 101 kPa) 0.635 ± 0.014 mPa·s; (303 K, 101 kPa) 0.589 ± 0.013 mPa·s; (308 K, 101 kPa) 0.548 ± 0.012 mPa·s.
Under “308.15 K, 101.33 kPa”, `Oc1ccc(Cl)cc1` yielded a viscosity of 8.228 ± 0.13 mPa·s.
